pIC50: −log10 of the molar value.
Assays:
C. tropicalis = assay: Inhibition of growth of C. tropicalis, Example 2 antifungal assay; assay type: cell-based; conditions: ½ strength PDB, 30° C., A595
Description: (§1) The inhibitory effects of the plant defensins on the growth of Candida albicans, Aspergillus fumigatus (obtained from the National Mycology Reference Centre, South Australia Pathology at the Women's and Children's Hospital, Adelaide, Australia), C. glabrata, C. tropicalis, A. flavus, A. niger, A. fumigants, Cryptococcus neoformans and C. gattii (obtained from Dee Carter, University of Sydney, New South Wales, Australia) are measured essentially as described by Broekaert et al. (1990) FEMS Microbiol Lett 69:55-59.
(§2) Spores of A. flavus. A. niger and A. fumigatus are isolated from sporulating fungus growing on ½ strength Sabouraud dextrose agar. Spores were removed from the plates by the addition of ½ strength potato dextrose broth (PDB). C. albicans, C. glabrata, C. tropicalis, C. neoformans and C. gattii cells are grown in Yeast Peptone Broth (YPD) for 16 h. Spore and cell concentrations are measured using a hemocytometer.
(§3) Antifungal assays are conducted in 96 well microtitre plates essentially as herein described. Wells are loaded with 20 μL of filter sterilized (0.22 μm syringe filter, Millipore) defensin (10× stock for each final concentration) or water and 80 μL of 5×10^4 spores/mL (A. flavus, A. niger, A. fumigatus), 5,000 cells/mL (C. albicans, C. glabrata, C. tropicalis) or 1×10^6 cells/mL (C. neoformans, C. gattii) in ½ strength PDB. The plates are incubated at 30° C. Fungal growth is assayed by measuring optical density at 595 nm (A595) using a microtitre plate reader (SpectraMax Pro M2; Molecular Devices. Growth is allowed to proceed until the optical density (OD) of the fungus in the absence of any test defensin reached an OD of 0.2. Each test is performed in duplicate.

A. fumigatus = assay: Inhibition of growth of Aspergillus fumigatus, Example 2 antifungal assay; assay type: cell-based; conditions: ½ strength PDB, 30° C., A595
Description: as §1, §2, §3

A. flavus = assay: Inhibition of growth of A. flavus, Example 2 antifungal assay; assay type: cell-based; conditions: ½ strength PDB, 30° C., A595
Description: as §1, §2, §3

E. coli = assay type: cell-based, Escherichia coli
Description: (§4) A single E. coli or B. subtilis colony was used to inoculate 5 ml of Luria-Bertani media and grown overnight at 37° C. The following day, the optical density of the culture was measured and the bacteria diluted to an optical density at 600 nm (OD600) of 0.01 in Mueller-Hinton Broth. Diluted E. coli or B. subtilis were added to 96-well plates with defensins at concentrations of 20 μM, 10 μM, 5 μM, 2.5 μM, 1.25 μM, 0.625 μM or 0.3125 μM. Plates were read at OD595 to obtain time zero data points. Plates were incubated at 37° C. for 18 hours before reading again at OD595 to assess the amount of bacterial growth.

[1] = test system: Trichophyton rubrum, T. interdigitale, Microsporum fulvum and C. albicans; assay: Inhibition assays of Example 1, summary across the range of fungal pathogens; assay type: cell-based; conditions: summary of Table 3, at the concentrations tested
Description: (§5) The inhibitory effects of the plant defensins on the growth of Trichophyton rubrum, T. interdigitale, Microsporum fulvum and C. albicans (all obtained from the National Mycology Reference Centre, South Australia Pathology at the Women's and Children's Hospital, Adelaide, Australia) are measured essentially as described by Broekaert et al. (1990) FEMS Microbiol Lett 69:55-59.
as §2, with “T. rubrum, T. interdigitale” for “A. flavus. A. niger”, “M. fulvum” for “A. fumigatus”, “albicans” for “albicans, C. glabrata, C. tropicalis, C. neoformans and C. gattii”
as §3, with “Ξ m” for “μm”, “(T. rubrum, T. interdigitale, M. fulvum) or” for “(A. flavus, A. niger, A. fumigatus),”, “albicans)” for “albicans, C. glabrata, C. tropicalis) or 1×10^6 cells/mL (C. neoformans, C. gattii)”

A. niger = assay: Inhibition of growth of A. niger, Example 2 antifungal assay; assay type: cell-based; conditions: ½ strength PDB, 30° C., A595
Description: as §1, §2, §3

T. albicans = assay: Inhibition of growth of C. albicans by plant defensins, Example 1 (microtitre A595 antifungal assay); assay type: cell-based; conditions: Table 3; ½ strength PDB, 30° C., A595
Description: as §5
as §2, with “T. rubrum, T. interdigitale” for “A. flavus. A. niger”, “M. fulvum” for “A. fumigatus”, “albicans” for “albicans, C. glabrata, C. tropicalis, C. neoformans and C. gattii”
as §3, with “Ξ m” for “μm”, “(T. rubrum, T. interdigitale, M. fulvum) or” for “(A. flavus, A. niger, A. fumigatus),”, “albicans)” for “albicans, C. glabrata, C. tropicalis) or 1×10^6 cells/mL (C. neoformans, C. gattii)”

C. gattii = assay: Inhibition of growth of C. gattii, Example 2 antifungal assay; assay type: cell-based; conditions: ½ strength PDB, 30° C., A595
Description: as §1, §2, §3

B. subtilis = assay: Inhibition of the growth of Bacillus subtilis (OD595, 18 hours); assay type: cell-based; conditions: at the concentrations tested (0.3125-20 μM)
Description: as §4

C. albicans = assay: Inhibition of growth of Candida albicans, Example 2 antifungal assay; assay type: cell-based; conditions: Table 4; ½ strength PDB, 30° C., A595
Description: as §1, §2, §3

Substance: HXL008: Class I plant defensin from Picramnia pentandra (KVCTKPSKFFKGLCGTDGACTTACRKEGLHSGYCQLKGFLNSVCVCRKHC; HXL008 Picramnia pentandra)
- IC50 against C. tropicalis (C. tropicalis): 7 µg/mL
- IC50 against A. fumigatus (A. fumigatus): 7.5 µg/mL
- IC50 against A. flavus (A. flavus): 40 µg/mL
- pIC50 (E. coli; Mueller-Hinton Broth, 37° C., 18 hours, up to 20 μM, read-out: IC50 against E. coli): < 4.70
- Inhibition of growth of E. coli (E. coli; at the concentrations tested (0.3125-20 μM)): did not inhibit the growth
- Activity across the range of fungal pathogens [1]: most effective
- IC50 against A. niger (A. niger): 42 µg/mL
- IC50 against T. albicans (T. albicans): 20 µg/mL
- IC50 against C. gattii (C. gattii): 12 µg/mL
- Inhibition of growth of B. subtilis (B. subtilis): did not inhibit the growth
- IC50 against C. albicans (C. albicans): 20 µg/mL

Source: patent publication US20180193412A1, “Method of In Vivo Treatment” (Hexima Limited, priority 2015, published 2018)
